Assay [1] has as its target JAK2 (Homo sapiens, UniProt O60674). The assay is described as follows: in vitro kinase profiling, more than 450 human kinases. It counts as binding. The conditions noted are these: data not shown. As to the method: To determine whether LY2784544 is able to sensitize SKOV3 CR cells to cisplatin in vivo, SKOV3 CR cells were implanted subcutaneously into nude mice. When the tumor volume reached 100 mm^3, mice were randomized to receive intraperitoneal injections of vehicle, cisplatin (8 mg/kg on days 1 and 8), LY2784544 (15 mg/kg/d from day 1 to day 14), or the combination of cisplatin and LY2784544. […] To evaluate whether this in vivo tumor suppression was through inhibition of the JAK2 pathway and increased apoptosis, the tumor samples four days after full dosage treatment were collected. […] Quantification of phosphorylated JAK2 and TUNEL staining in tumor tissues treated was performed (FIG. 28). […] To confirm the selectivity of LY2784544, an in vitro kinase profiling was conducted to examine the interaction of LY2784544 with more than 450 human kinases.

The test system of assay [2] is IL-11. Put plainly: IL-11 secretion by ELISA in cell culture medium. It counts as cell-based, human. The conditions noted are these: SKOV3 cells, various small doses of cisplatin, four days. The procedure: FIG. 69 are bar graphs ((A)-(C) and (E)-(F)) and illustrations ((D) and (G)) showing that reactive oxygen species (ROS) induces IL-11 expression. (A) is a bar graph showing quantification of ROS production in SKOV3 and SKOV3 CR cells. Data are represented as means±SD from three independent experiments. **p<0.01. Scale bar, 100 μm. (B) is a bar graph showing quantification of ROS production in SKOV3 CR cells after treatment with the ROS inhibitor YCG063 at 20 μM for 24 hr. Data are represented as means±SD from three independent experiments. ***p<0.001. (C) is a bar graph showing IL-11 levels measured by ELISA in the medium of SKOV3 CR cells treated with YCG063 at 20 μM for 24 hr. Data are represented as mean±SD from three independent experiments performed in triplicate. ***p<0.001. (D) is an illustration showing an immunoblot of phosphorylated JAK2 and STAT5 in SKOV3 CR cells treated with YCG063 (20 μM) for 24 hr. (E) is a bar graph showing quantification of ROS production in SKOV3 cells after treated with the ROS inhibitor YCG063 (20 μM), cisplatin (1 μM), or both for 24 hr. Data are represented as means±SD from three independent experiments. **p<0.01, ***p<0.001, n.s. means not significant by one-way ANOVA. (F) is a bar graph showing IL-11 levels measured by ELISA in SKOV3 cells treated with YCG063 (20 μM), cisplatin (1 μM) or both for 24 hr. Data are represented as mean±SD from three independent experiments performed in triplicate. ***p<0.001 by one-way ANOVA. (G) is an illustration showing an immunoblot of phosphorylated JAK2 and STAT5 in SKOV3 CR cells treated with YCG063 (20 μM), cisplatin (1 μM) or both for 24 hr.
Next, the factor from medium that contributes to cisplatin resistance of SKOV3 CR cells was investigated. […] The cell-free culture medium, mouse serum, and patient serum were analyzed for IL-11 levels using a human IL-11 ELISA kit (R&D Systems) according to the manufacturer's instructions. The absorbance was read at 450 nm using a microplate reader (BioTek). The data were normalized to the cell number. […]
(In general: ELISA stands for enzyme-linked immunosorbent assay.)

Assay [3] has as its system SKOV3 xenograft tumors. Put plainly: SKOV3 and SKOV3 CR xenograft tumors treated with cisplatin. It is filed as in vivo, nude mice. As to the method:
FIG. 4 is an illustration showing representative TUNEL staining (A) and a bar graph (B) of SKOV3 and SKOV3 CR xenograft tumors treated with cisplatin for two weeks (2 mg/kg or 4 mg/kg cisplatin twice per week) and quantified apoptosis percentage (B). n−3 mice/group. Bar in (A)−50 μm. Data are represented as mean±SD. **p<0.01, ***p<0.001.
FIG. 52 is a bar graph showing IL-11 levels measured by ELISA in plasma of mice bearing SKOV3 xenograft tumors treated with vehicle or cisplatin (2-6 mg/kg/twice a week intraperitoneally for 2 weeks). Data are represented as mean±SD. n=3 mice/group. **p<0.01, ***p<0.001.
Since cisplatin exerts its anticancer effect mainly through its ability to cause DNA damage, resulting in apoptosis, the apoptotic cells in both SKOV3 and SKOV CR cells were measured using Annexin V and Propidium Iodide staining. […] To test whether SKOV3 CR cells are resistant to cisplatin-induced apoptosis in vivo, both SKOV3 and SKOV3 CR cells were injected into nude mice to form xenograft tumors. Once the tumor size reached 100-150 mm^3, cisplatin was given to mice by intraperitoneal injections twice a week for 2 weeks. Three days after treatment, the apoptosis in tumors was examined by TUNEL staining. […] Currently, carboplatin is a more commonly used platinum drug employed clinically to treat ovarian patients. Ozols et al., J Clin Oncol 21: 3194-3200 (2003). Thus, it was tested whether SKOV3 CR cells are also resistant to carboplatin (Sigma-Aldrich).
To further test whether ovarian cancer cells have a similar response to cisplatin in vivo, SKOV3 xenograft tumors were treated with various doses of cisplatin (2 mg-6 mg/kg/twice per week) for 2 weeks. Mice were sacrificed 4 days after the last treatment, and blood samples and xenograft tumors were collected to examine IL-11 expression. […] A high dose of cisplatin generated the high levels of both IL-11 and pJAK2 (Y1007/1008) on tumors (FIG. 53). Thus, cisplatin is able to promote expression of IL-11 as well as JAK2 pathway both in vitro and in vivo.

Where [4] appears, read: SKOV3 xenograft, cisplatin 2-6 mg/kg twice per week for 2 weeks.

Each structure is given as a SMILES string.

JAK2, sequence (O60674 whole entry): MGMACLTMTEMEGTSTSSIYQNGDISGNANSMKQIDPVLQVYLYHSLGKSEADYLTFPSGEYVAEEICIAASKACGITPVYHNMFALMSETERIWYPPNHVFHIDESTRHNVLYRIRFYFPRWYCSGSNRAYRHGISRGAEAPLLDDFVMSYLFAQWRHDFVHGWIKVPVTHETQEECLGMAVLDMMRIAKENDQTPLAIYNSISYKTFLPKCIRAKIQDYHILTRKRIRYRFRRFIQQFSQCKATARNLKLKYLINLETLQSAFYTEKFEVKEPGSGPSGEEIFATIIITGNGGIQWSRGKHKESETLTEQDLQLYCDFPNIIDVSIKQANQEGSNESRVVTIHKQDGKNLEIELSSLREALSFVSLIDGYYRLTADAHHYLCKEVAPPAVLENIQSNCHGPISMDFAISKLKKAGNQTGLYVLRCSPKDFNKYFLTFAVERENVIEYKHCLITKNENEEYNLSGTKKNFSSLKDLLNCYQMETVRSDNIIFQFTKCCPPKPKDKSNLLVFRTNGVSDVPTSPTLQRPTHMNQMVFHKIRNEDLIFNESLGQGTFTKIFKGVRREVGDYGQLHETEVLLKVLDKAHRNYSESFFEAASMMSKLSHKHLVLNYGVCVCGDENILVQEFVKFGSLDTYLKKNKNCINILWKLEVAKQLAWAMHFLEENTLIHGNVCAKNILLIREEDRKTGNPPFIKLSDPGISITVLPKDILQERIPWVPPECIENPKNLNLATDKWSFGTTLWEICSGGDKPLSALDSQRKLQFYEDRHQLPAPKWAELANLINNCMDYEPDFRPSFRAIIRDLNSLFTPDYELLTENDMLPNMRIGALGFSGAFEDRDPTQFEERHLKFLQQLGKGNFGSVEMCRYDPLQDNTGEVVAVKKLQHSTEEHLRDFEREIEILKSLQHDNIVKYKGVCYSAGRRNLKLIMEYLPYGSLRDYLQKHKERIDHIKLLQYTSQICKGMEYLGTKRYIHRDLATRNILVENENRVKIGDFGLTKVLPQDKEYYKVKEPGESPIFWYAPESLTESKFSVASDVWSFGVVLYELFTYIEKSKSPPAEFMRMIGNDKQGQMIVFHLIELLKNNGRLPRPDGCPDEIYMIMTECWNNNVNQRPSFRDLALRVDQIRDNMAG

Take `Cc1cc(Nc2cc(CN3CCOCC3)c3nc(C)c(Cc4ccc(Cl)cc4F)n3n2)n[nH]1` [LY2784544]: the “binding selectivity among kinases” value in assay [1] was “stronger binding to JAK2 than JAK1 and TYK2”.
As to `N.N.[Cl][Pt][Cl]` [cisplatin], the IL-11 secretion result in assay [2] is recorded as “increased in a cisplatin dose dependent manner”. In addition, in assay [3] (setting [4]), the “IL-11 and pJAK2 levels in tumors (IHC)” value is reported as “significant increase of IL-11 as well as pJAK2 (Y1007/1008) levels in SKOV3 tumors”; the “human IL-11 levels in serum” value is given as “dramatically increased human IL-11 levels in serum of nude mice”. For the same molecule, the “apoptosis in xenograft tumors (TUNEL)” value in assay [3] (cisplatin i.p. twice a week for 2 weeks (2 or 4 mg/kg), three days after treatment) is “apoptotic population was significantly increased in SKOV3 but not in SKOV3 CR cells”.

The values are drawn from patent US20200031920A1, “Combination Therapy for Treating Cancer” (The George Washington University, priority 2017, published 2020).
